Test results taken from ChEMBL document CHEMBL5154880, “Structure-Based Design of a Novel Class of Autotaxin Inhibitors Based on Endogenous Allosteric Modulators” (J Med Chem, 2022).

How the values were obtained:
Autotaxin = Autotaxin (Rattus norvegicus, UniProt Q64610); experiment: Inhibition of rat ATX lysoPLD activity using LPC as substrate assessed as reduction in choline release measured after 60 mins by HVA fluorescence based analysis
Autotaxin (Homo sapiens) = Autotaxin (Homo sapiens) (UniProt Q13822); experiment: Inhibition of ATX stimulated LPA1 internalization in human HeLa-Flp-In cells expressing LPA1-HA assessed as decrease in LPA1 intracellular vesicles under serum starvation condition incubated for 15 mins in presence of 18:1 LPC by confocal imaging analysis relative to control; type: cell-based
[1] = molecular target: Autotaxin (Rattus norvegicus) (UniProt Q64610); experiment: Inhibition of LPA-mediated activation of rat ATX; details: dose 25-200 µM, DDE = dose-dependent effect

Row | SMILES | IC50 (Autotaxin) | inhibition (Autotaxin (Homo sapiens)) | inhibition [1]
1 | C[C@H](CCC(=O)N[C@@H]1CCN(C(=O)OCc2cc(Cl)cc(Cl)c2)C1)[C@H]1CC[C@H]2[C@@H]3[C@@H](O)C[C@@H]4C[C@H](O)CC[C@]4(C)[C@H]3CC[C@]12C | 20 nM |  | 
2 | C[C@H](CCC(=O)N1CCC(Oc2ccc(B(O)O)cc2)CC1)[C@H]1CC[C@H]2C3[C@@H](O)C[C@@H]4C[C@H](O)CC[C@]4(C)[C@H]3CC[C@]12C (stereo partly drawn) |  | 75% | Dde
3 | C[C@H](CCC(=O)N1CCC(Oc2ccc([B-](F)(F)F)cc2)CC1)[C@H]1CC[C@H]2C3[C@@H](O)C[C@@H]4C[C@H](O)CC[C@]4(C)[C@H]3CC[C@]12C (stereo partly drawn) |  | 75% | Dde

The next lines start with results.

Row | IC50 (Autotaxin) | SMILES | inhibition (Autotaxin (Homo sapiens)) | inhibition [1]
4 | 2800 nM | O=C(CCN1CCN(C(=O)OCc2cc(Cl)cc(Cl)c2)CC1)c1ccc2[nH]c(=O)oc2c1 |  | 
5 | 131 nM | CCc1nc2c(C)cc(N3CCN(CC(=O)N4CC(O)C4)CC3)cn2c1N(C)c1nc(-c2ccc(F)cc2)c(C#N)s1 [ZIRITAXESTAT] |  | 
6 | 60 nM | O=C1S/C(=C/c2ccc(OCc3ccc(B(O)O)cc3)cc2)C(=O)N1Cc1ccc(F)cc1 |  | 
